What was measured:
OVCAR-3 = assay: Growth inhibition of human OVCAR-3 cells incubated for 3 days by CellTiter-Glo luminescent assay; type: functional; conditions: OVCAR-3, 72 h, time 3 day
SK-OV-3 = assay: Growth inhibition of human SK-OV-3 cells incubated for 3 days by CellTiter-Glo luminescent assay; type: functional; conditions: SK-OV-3, 72 h, time 3 day

CC[C@H](C)[C@@H]([C@@H](CC(=O)N1CCC[C@H]1[C@H](OC)[C@@H](C)CC(=O)N[C@H](C)[C@@H](C)c1ccccc1)OC)N(C)C(=O)[C@@H](NC(=O)[C@H](C(C)C)N(C)C(=O)OCc1ccc(NC(=O)[C@H](CCCNC(N)=O)NC(=O)[C@@H](NC(=O)CCCCCN2C(=O)CC(SCC[C@@H](NC(=O)[C@H](Cc3ccc(O)cc3)NC(=O)[C@H](CO)NC(=O)[C@H](Cc3c[nH]c4ccccc34)NC(=O)[C@H](Cc3cnc[nH]3)NC(=O)[C@@H]3CCC(=O)N3)C(=O)N[C@@H](CC(C)C)C(=O)N[C@@H](CCCNC(=N)N)C(=O)N3CCC[C@H]3C(=O)NCC(N)=O)C2=O)C(C)C)cc1)C(C)C (some centres not stated)
GI50 (OVCAR-3): 4 nM
GI50 (SK-OV-3): 453 nM
